Reference: US6821980B1, “Substituted 5-benzyl-2,4-diaminopyrimidines” (Basilea Pharmaceutica AG, priority 1999, dated 2004)
Converted amounts (≈) assume the structure as drawn. Read-outs that look alike come from different tables or passages of the source.

What was measured:
[1] = tested on: Streptococcus pneumoniae 1/1; assay: MIC against Streptococcus pneumoniae 1/1; assay type: cell-based; conditions: Streptococcus pneumoniae 1/1, trimethoprim- and penicillin-resistant, serotype 6, clinical isolate; for MIC: read-out: MIC Sp1/1
[2] = tested on: Staphylococcus aureus 101; assay: MIC against Staphylococcus aureus 101; assay type: cell-based; conditions: Staphylococcus aureus 101, MRSA- and trimethoprim-resistant, clinical isolate; for MIC: read-out: MIC Sa101
[3] = biological target: T1, purified DHFR of strain Sp1/1 of Streptococcus pneumoniae (Streptococcus pneumoniae serotype 4, UniProt Q54801); assay type: biochemical; conditions: IC50 against purified DHFR of strain Sp1/1
T1 sequence (Q54801 1-168 I100L): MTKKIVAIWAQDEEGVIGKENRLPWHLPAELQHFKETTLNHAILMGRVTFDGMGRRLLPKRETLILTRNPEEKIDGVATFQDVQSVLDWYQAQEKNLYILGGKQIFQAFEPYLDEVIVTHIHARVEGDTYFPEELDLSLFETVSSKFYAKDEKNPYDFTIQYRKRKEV

[4] = biological target: purified DHFR of strain 157/4696 of Staphylococcus aureus (Staphylococcus aureus, UniProt P13955); assay: biochemical
Sequence of purified DHFR of strain 157/4696 of Staphylococcus aureus (P13955 whole entry): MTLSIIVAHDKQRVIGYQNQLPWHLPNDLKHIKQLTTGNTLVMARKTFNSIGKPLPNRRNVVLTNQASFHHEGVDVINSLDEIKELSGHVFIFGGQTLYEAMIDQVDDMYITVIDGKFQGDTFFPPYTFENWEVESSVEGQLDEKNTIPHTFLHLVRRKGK

SMILES	MIC ([1]; Table 2)	MIC ([2]; Table 2)	IC50 ([3]; Table 2)	IC50 [4]	MIC Sp1/1 ([1]; Table 2)	MIC Sa101 ([2]; Table 2)	IC50 ([4]; Table 2, IC50 against purified DHFR of strain 157/4696 (highly trimethoprim-resistant; clinical isolate), read-out: DHFR Sa1)	MIC ([1]; Table 1)	MIC ([2]; Table 1)	IC50 ([3]; Table 1)
CCOc1cc(Cc2cnc(N)nc2N)cc(OS(=O)(=O)CC2CCCO2)c1-c1ccc(N)c(F)c1 (stereo not drawn) [Example 42-b, Tetrahydrofuran-2-yl-methanesulphonic acid 4′-amino-4-(2,4-diamino-primidin-5-ylmethyl)-6-ethoxy-3′-fluoro-biphenAl-2-yl ester]	2 µg/mL (≈ 3.86 µM)	8 µg/mL (≈ 15.5 µM)	0.0076 µM	0.51 µM	–	–	–	–	–	–
CCOc1cc(Cc2cnc(N)nc2N)cc(OS(=O)(=O)C2CC2)c1-c1cc(N)cc(F)c1 [Example 34-c, Cyclopropanesulphonic acid 3′-amino-4-(2,4-diamino-pyrimidin-5-ylmethyl)-6-ethoxy-5′-fluoro-biphenyl-2-yl ester]	2 µg/mL (≈ 4.22 µM)	4 µg/mL (≈ 8.45 µM)	0.0034 µM	0.19 µM	–	–	–	–	–	–
CCOc1cc(Cc2cnc(N)nc2N)cc(OS(=O)(=O)CC(C)(C)OC)c1-c1ccc(N)c(C)c1 [Example 39-b, (2-Methoxy-2-methyl-propane)-1-sulphonic acid 4′-amino-4-(2,4-diamino-pyrimidin-5-ylmethyl)-6-ethoxy-3′-methyl-biphenyl-2-yl ester]	0.5 µg/mL (≈ 0.97 µM)	4 µg/mL (≈ 7.76 µM)	0.0049 µM	0.25 µM	–	–	–	–	–	–
CCOc1cc(Cc2cnc(N)nc2N)cc(OCC)c1-c1ccc(COCC(=O)N2CCOCC2)s1 [Example 03-a, 2-[5-[4-(2,4-Diamino-pyrimidin-5-ylmethyl)-2,6-diethoxy-phenyl]-thiophen-2-ylmethoxyl]-1-morpholin-4-yl-ethanone]	2 µg/mL (≈ 3.79 µM)	8 µg/mL (≈ 15.2 µM)	0.031 µM	1.8 µM	–	–	–	–	–	–
CCOc1cc(Cc2cnc(N)nc2N)cc(OS(=O)(=O)N(C)CC)c1-c1ccc(NC)cc1 [Example 26-b, N-Ethyl-N-methyl-sulphamic acid 4-(2,4-diamino-pvrimidin-5-ylmethyl)-6-ethoxy-4′-methylamino-biphenyl-2-yl ester]	1 µg/mL (≈ 2.06 µM)	1 µg/mL (≈ 2.06 µM)	0.0019 µM	0.17 µM	–	–	–	–	–	–
CCOc1cc(Cc2cnc(N)nc2N)cc(OCC)c1-c1ccc(C)c(N)c1 [Example 02-ad, 5-(3′-Amino-2,6-diethoxy-4′-methyl-biphenyl-4-ylmethyl)-pyrimidine-2,4-diamine]	4 µg/mL (≈ 10.2 µM)	8 µg/mL (≈ 20.3 µM)	0.085 µM	2 µM	–	–	–	–	–	–
CCCS(=O)(=O)Oc1cc(Cc2cnc(N)nc2N)cc(OCC)c1-c1ccc(F)c(N)c1 [Example 32-c]	–	–	0.0061 µM	–	1 µg/mL (≈ 2.1 µM)	4 µg/mL (≈ 8.41 µM)	0.13 µM	–	–	–
CCCOc1cc(Cc2cnc(N)nc2N)cc(OCCC)c1-c1cccc(N)c1 [Example 51-, 5-(3′-Amino-2,6-di-n-propoxy-biphenyl-4-ylmethyl)-pyrimidine-2,4-diamine]	2 µg/mL (≈ 4.91 µM)	8 µg/mL (≈ 19.6 µM)	0.043 µM	8.5 µM	–	–	–	–	–	–
CCOc1cc(Cc2cnc(N)nc2N)cc(OCC)c1-c1ccc2cc(O)ccc2c1 [Example 02-f, 6-[4-(2,4-Diamino-pyrimidin-5-ylmethyl)-2,6-diethoxy-phenyl]-naphthalen-2-ol]	4 µg/mL (≈ 9.29 µM)	4 µg/mL (≈ 9.29 µM)	0.028 µM	1.7 µM	–	–	–	–	–	–
CCOc1cc(Cc2cnc(N)nc2N)cc(OCC)c1-c1ccc(CN(C)CCF)c(F)c1 [Example 04-ad, 5-(2,6-Diethoxy-3′-fluoro-4′-{[N-(2-fluoro-ethyl)-N-methyl-amino]-methyl}-biphenyl-4-ylmethyl)-pyrimidine-2,4-diamine]	4 µg/mL (≈ 8.48 µM)	8 µg/mL (≈ 17 µM)	0.17 µM	2.7 µM	–	–	–	–	–	–
CCOc1cc(Cc2cnc(N)nc2N)cc(OCC)c1-c1cccs1 [Example 02-m, 5-(3,5-Diethoxy-4-thiophen-2-yl-benzyl)-pyrimidine-2,4-diamine]	4 µg/mL (≈ 10.8 µM)	8 µg/mL (≈ 21.6 µM)	0.058 µM	0.7 µM	–	–	–	–	–	–
CCOc1cc(Cc2cnc(N)nc2N)cc(OCC)c1-c1ccc(COCC(=O)N2CCCCC2)s1 [Example 03-c, 2-[5-[4-(2,4-Diamino-pyrimidin-5-ylmethyl)-2,6-diethoxy-phenyl]-thionhen-2-ylmethoxy]-1-piperidin-1-yl-ethanone]	2 µg/mL (≈ 3.8 µM)	8 µg/mL (≈ 15.2 µM)	0.011 µM	2 µM	–	–	–	–	–	–
CCOc1cc(Cc2cnc(N)nc2N)cc(OS(=O)(=O)C2CCC2)c1-c1ccc(N)c(C)c1 [Example 40c, Cyclobutane-sulphonic acid 4′-amino-4-(2,4-diamino-pyrimidin-5-ymethyl)-6-ethoxy-3′-methyl-biphenyl-2-yl ester]	–	–	–	0.037 µM	–	–	–	0.5 µg/mL (≈ 1.03 µM)	1 µg/mL (≈ 2.07 µM)	0.019 µM
CCOc1cc(Cc2cnc(N)nc2N)cc(OS(=O)(=O)C2CCOCC2)c1-c1ccc(N)c(F)c1 [Example 41-b, Tetrahydronyran-4-sulphonic acid 4′-amino-4-(2,4-diamino-pyrimidin-5-ylmethyl)-6-ethoxy-3′-fluoro-biphenyl-2-yl ester]	0.5 µg/mL (≈ 0.966 µM)	4 µg/mL (≈ 7.73 µM)	0.0062 µM	0.25 µM	–	–	–	–	–	–
CCOc1cc(Cc2cnc(N)nc2N)cc(OCC)c1-c1ccc(OCC(N)=O)cc1 [Example 46-, 2-[4′-(2,4-Diamino-pylimidin-5-ylmethyl)-2′,6′-diethoxy-biphenyl-4-yloxy]-acetamide]	2 µg/mL (≈ 4.57 µM)	8 µg/mL (≈ 18.3 µM)	0.055 µM	0.75 µM	–	–	–	–	–	–
CCOc1cc(Cc2cnc(N)nc2N)cc(OCC)c1-c1ccc(N)c(OC)c1 [Example 04-l, 5-(4′-Amino-2,6-diethoxy-3′-methoxy-biphenyl-4-ylmethyl)-pyrimidine-2,4-diamine]	4 µg/mL (≈ 9.77 µM)	8 µg/mL (≈ 19.5 µM)	0.082 µM	1.9 µM	–	–	–	–	–	–
CCOc1cc(Cc2cnc(N)nc2N)cc(OS(=O)(=O)N(C)CC)c1-c1ccc(C)c(N)c1 [Example 31-b, N-Ethyl-N-methyl-sulphamic acid 3′-amino-4-(2,4-diamino-pyrimidin-5-ylmethyl)-6-ethoxy-4′-methyl-biphenyl-2-yl ester]	1 µg/mL (≈ 2.06 µM)	2 µg/mL (≈ 4.11 µM)	0.0044 µM	0.13 µM	–	–	–	–	–	–
CCOc1cc(Cc2cnc(N)nc2N)cc(OCC2CC2)c1-c1ccc(OC)cc1 [Example 09-d, 5-(2-Cyclopropylmethoxy-6-ethoxy-4′-methoxy-biphenyl-4-ylmethyl)-pyrimidine-2.4-diamine]	2 µg/mL (≈ 4.76 µM)	4 µg/mL (≈ 9.51 µM)	0.03 µM	1.5 µM	–	–	–	–	–	–
CCOc1cc(Cc2cnc(N)nc2N)cc(OCC)c1-c1ccc(N)c(F)c1 [Example 04-r, 5-(4′-Amino-2,6-diethoxy-3′-fluoro-biphenyl-4-3dmethyl)-Ryrimidine-2,4-diamine]	4 µg/mL (≈ 10.1 µM)	8 µg/mL (≈ 20.1 µM)	0.085 µM	3.2 µM	–	–	–	–	–	–
CCOc1cc(Cc2cnc(N)nc2N)cc(OCC(C)C)c1-c1ccc2c(c1)OCO2 [Example 10-c, 5-(4-Benzo[1,3]dioxol-5-yl-3-ethoxy-5-isobutoxy-benzyl)-pyrimidine-2,4-diamine]	4 µg/mL (≈ 9.16 µM)	8 µg/mL (≈ 18.3 µM)	0.011 µM	5 µM	–	–	–	–	–	–
CCOc1cc(Cc2cnc(N)nc2N)cc(OCC)c1-c1cc(C)cc(N)c1 [Example 04-ae, 5-(5′-Amino-2,6-diethoxy-3′-methyl-biphenyl-4-ylmethyl)-pyrimidine-2,4-diamine]	8 µg/mL (≈ 20.3 µM)	8 µg/mL (≈ 20.3 µM)	0.019 µM	1.4 µM	–	–	–	–	–	–
